Species: Rattus norvegicus
Experiment: Open TG-GATES - Regimen: Single
Assay type: toxicity, organism-based, Sprague-Dawley
Parameters: regimen Single, gender Male, age 6 weeks
Settings: in vivo, po, route gavage; for gamma-GTP / ALT / AST / BUN / CRE / Ca / Cl / DBIL / GLC / IP / K / LDH / Na / PL / RALB / TBIL / TC / TP: tissue Plasma; for Bas / Eos / Fbg / Hb / Ht / Lym / MCHC / MCV / Mono / Neu / Plat / RBC / Ret / WBC: tissue Blood; for KIDNEY_TOTAL: tissue Kidney; for LIVER: tissue Liver
[1] = 50 mg/kg, 24 h, dose level High

C[C@@H]1C[C@H]2[C@@H]3CCC4=CC(=O)C=C[C@]4(C)[C@@]3(F)[C@@H](O)C[C@]2(C)[C@@]1(O)C(=O)CO [DEXAMETHASONE]
gamma-GTP (5 mg/kg, 24 h, dose level Middle): 0 IU/L
TERMINAL_BW (50 mg/kg, 3 h, dose level High): 214.6 g
Bas (50 mg/kg, 3 h, dose level High): 0%
Eos (50 mg/kg, 3 h, dose level High): 0.8%
Fbg (50 mg/kg, 3 h, dose level High): 244.4 mg/dL
Hb (50 mg/kg, 3 h, dose level High): 13.1 g/dL
Ht (50 mg/kg, 3 h, dose level High): 40.1%
Lym (50 mg/kg, 3 h, dose level High): 58%
MCHC (50 mg/kg, 3 h, dose level High): 32.5%
MCV (50 mg/kg, 3 h, dose level High): 63.1 fL
Mono (50 mg/kg, 3 h, dose level High): 2.8%
Neu (50 mg/kg, 3 h, dose level High): 38.8%
Plat (50 mg/kg, 3 h, dose level High): 125.2 x10_4/uL
RBC (50 mg/kg, 3 h, dose level High): 635.6 x10_4/ul
Ret (50 mg/kg, 3 h, dose level High): 7.4%
WBC (50 mg/kg, 3 h, dose level High): 35.1 x10_2/uL
KIDNEY_TOTAL (50 mg/kg, 3 h, dose level High): 0.6 g
LIVER (50 mg/kg, 3 h, dose level High): 10.7 g
ALT (50 mg/kg, 3 h, dose level High): 40.4 IU/L
AST (50 mg/kg, 3 h, dose level High): 75.2 IU/L
BUN (50 mg/kg, 3 h, dose level High): 15.6 mg/dL
CRE (50 mg/kg, 3 h, dose level High): 0.4 mg/dL
Ca (50 mg/kg, 3 h, dose level High): 11.3 mg/dL
Cl (50 mg/kg, 3 h, dose level High): 103.2 meq/L
DBIL (50 mg/kg, 3 h, dose level High): 0.012 mg/dL
GLC (50 mg/kg, 3 h, dose level High): 198.8 mg/dL
IP (50 mg/kg, 3 h, dose level High): 11.5 mg/dL
K (50 mg/kg, 3 h, dose level High): 3.9 meq/L
LDH (50 mg/kg, 3 h, dose level High): 85.4 IU/L
Na (50 mg/kg, 3 h, dose level High): 142 meq/L
PL (50 mg/kg, 3 h, dose level High): 152.8 mg/dL
RALB (50 mg/kg, 3 h, dose level High): 4.3 g/dL
TBIL (50 mg/kg, 3 h, dose level High): 0.04 mg/dL
TC (50 mg/kg, 3 h, dose level High): 91 mg/dL
TP (50 mg/kg, 3 h, dose level High): 6.1 g/dL
gamma-GTP (50 mg/kg, 3 h, dose level High): 1 IU/L
TERMINAL_BW (50 mg/kg, 6 h, dose level High): 208.4 g
Bas (50 mg/kg, 6 h, dose level High): 0%
Eos (50 mg/kg, 6 h, dose level High): 0%
Fbg (50 mg/kg, 6 h, dose level High): 244.4 mg/dL
Hb (50 mg/kg, 6 h, dose level High): 13.3 g/dL
Ht (50 mg/kg, 6 h, dose level High): 40.4%
Lym (50 mg/kg, 6 h, dose level High): 61.8%
MCHC (50 mg/kg, 6 h, dose level High): 32.9%
MCV (50 mg/kg, 6 h, dose level High): 63.8 fL
Mono (50 mg/kg, 6 h, dose level High): 3.4%
Neu (50 mg/kg, 6 h, dose level High): 34.4%
Plat (50 mg/kg, 6 h, dose level High): 119.3 x10_4/uL
RBC (50 mg/kg, 6 h, dose level High): 634 x10_4/ul
Ret (50 mg/kg, 6 h, dose level High): 7.1%
WBC (50 mg/kg, 6 h, dose level High): 26.8 x10_2/uL
KIDNEY_TOTAL (50 mg/kg, 6 h, dose level High): 0.5 g
LIVER (50 mg/kg, 6 h, dose level High): 10.5 g
ALT (50 mg/kg, 6 h, dose level High): 40.8 IU/L
AST (50 mg/kg, 6 h, dose level High): 83 IU/L
BUN (50 mg/kg, 6 h, dose level High): 16.2 mg/dL
CRE (50 mg/kg, 6 h, dose level High): 0.4 mg/dL
Ca (50 mg/kg, 6 h, dose level High): 11.4 mg/dL
Cl (50 mg/kg, 6 h, dose level High): 104.6 meq/L
DBIL (50 mg/kg, 6 h, dose level High): 0.01 mg/dL
GLC (50 mg/kg, 6 h, dose level High): 215.2 mg/dL
IP (50 mg/kg, 6 h, dose level High): 8.1 mg/dL
K (50 mg/kg, 6 h, dose level High): 4.1 meq/L
LDH (50 mg/kg, 6 h, dose level High): 80.6 IU/L
Na (50 mg/kg, 6 h, dose level High): 140.2 meq/L
PL (50 mg/kg, 6 h, dose level High): 157.6 mg/dL
RALB (50 mg/kg, 6 h, dose level High): 4.6 g/dL
TBIL (50 mg/kg, 6 h, dose level High): 0.036 mg/dL
TC (50 mg/kg, 6 h, dose level High): 106.4 mg/dL
TP (50 mg/kg, 6 h, dose level High): 6.5 g/dL
gamma-GTP (50 mg/kg, 6 h, dose level High): 0 IU/L
TERMINAL_BW (50 mg/kg, 9 h, dose level High): 200.5 g
Bas (50 mg/kg, 9 h, dose level High): 0%
Eos (50 mg/kg, 9 h, dose level High): 0%
Fbg (50 mg/kg, 9 h, dose level High): 244.6 mg/dL
Hb (50 mg/kg, 9 h, dose level High): 13.5 g/dL
Ht (50 mg/kg, 9 h, dose level High): 41%
Lym (50 mg/kg, 9 h, dose level High): 42.8%
MCHC (50 mg/kg, 9 h, dose level High): 32.9%
MCV (50 mg/kg, 9 h, dose level High): 64.5 fL
Mono (50 mg/kg, 9 h, dose level High): 2%
Neu (50 mg/kg, 9 h, dose level High): 55.2%
Plat (50 mg/kg, 9 h, dose level High): 121.9 x10_4/uL
RBC (50 mg/kg, 9 h, dose level High): 636.2 x10_4/ul
Ret (50 mg/kg, 9 h, dose level High): 5.4%
WBC (50 mg/kg, 9 h, dose level High): 15.4 x10_2/uL
KIDNEY_TOTAL (50 mg/kg, 9 h, dose level High): 0.5 g
LIVER (50 mg/kg, 9 h, dose level High): 10.8 g
ALT (50 mg/kg, 9 h, dose level High): 39 IU/L
AST (50 mg/kg, 9 h, dose level High): 78.2 IU/L
BUN (50 mg/kg, 9 h, dose level High): 18.2 mg/dL
CRE (50 mg/kg, 9 h, dose level High): 0.4 mg/dL
Ca (50 mg/kg, 9 h, dose level High): 10.6 mg/dL
Cl (50 mg/kg, 9 h, dose level High): 103.2 meq/L
DBIL (50 mg/kg, 9 h, dose level High): 0.01 mg/dL
GLC (50 mg/kg, 9 h, dose level High): 238.8 mg/dL
IP (50 mg/kg, 9 h, dose level High): 6.6 mg/dL
K (50 mg/kg, 9 h, dose level High): 4.2 meq/L
LDH (50 mg/kg, 9 h, dose level High): 83.4 IU/L
Na (50 mg/kg, 9 h, dose level High): 138 meq/L
PL (50 mg/kg, 9 h, dose level High): 177.6 mg/dL
RALB (50 mg/kg, 9 h, dose level High): 4.6 g/dL
TBIL (50 mg/kg, 9 h, dose level High): 0.032 mg/dL
TC (50 mg/kg, 9 h, dose level High): 105.6 mg/dL
TP (50 mg/kg, 9 h, dose level High): 6.5 g/dL
gamma-GTP (50 mg/kg, 9 h, dose level High): 0.8 IU/L
TERMINAL_BW [1]: 218.5 g
Bas [1]: 0%
Eos [1]: 1.2%
Fbg [1]: 231 mg/dL
Hb [1]: 13.8 g/dL
Ht [1]: 42.2%
Lym [1]: 13.8%
MCHC [1]: 32.8%
MCV [1]: 63.1 fL
Mono [1]: 7.2%
Neu [1]: 78.4%
Plat [1]: 129.6 x10_4/uL
RBC [1]: 667.6 x10_4/ul
Ret [1]: 4.6%
WBC [1]: 26.2 x10_2/uL
KIDNEY_TOTAL [1]: 0.3 g
LIVER [1]: 14.3 g
ALT [1]: 52.8 IU/L
AST [1]: 102.2 IU/L
BUN [1]: 19.2 mg/dL
CRE [1]: 0.5 mg/dL
Ca [1]: 11.2 mg/dL
Cl [1]: 99.8 meq/L
DBIL [1]: 0.018 mg/dL
GLC [1]: 273.2 mg/dL
IP [1]: 6.7 mg/dL
K [1]: 4.6 meq/L
Na [1]: 138.8 meq/L
PL [1]: 260.8 mg/dL
RALB [1]: 4.6 g/dL
TBIL [1]: 0.042 mg/dL
TC [1]: 120.4 mg/dL
TP [1]: 6.5 g/dL
gamma-GTP [1]: 0.4 IU/L

Source: ChEMBL document CHEMBL3885861, “Open TG-GATES”
